Test results as given in patent publication US11903914B2, “Applications for sulindac in preparing anti-lung cancer products” (SHANGHAI JIAO TONG UNIVERSITY, priority 2015, dated 2024).

Legend:
Assay type in all cases: cell-based
[1] = test system: NCI-H720 lung cancer cells; assay: CELLTITER-GLO luminescent cell viability assay, NCI-H720 96-well drug screening plate; conditions: 72 hours
Protocol: (§1) In example 1, CELLTITER-GLO was used to test sulindac against lung cancer
(§2) 1. Cell Plating • a) The complete medium required for each cell was prepared. • b) Before beginning the experiment, the name of the drug screened for the cells marked on the 100 mm petri dish was confirmed as well as information such as the passage time and number of passages to ensure the experiment was error-free. • c) Refer to steps d) through i) for procedures for adherent cells; refer to steps j) through l) for procedures for suspension cells. • d) When using aseptic technique, a vacuum pump was used to draw the cell culture medium. • e) 2 ml of a sterile PBS solution was used to rinse cell surfaces, and a vacuum pump was used to aspirate the PBS waste. • f) A 1 ml 0.25% (w/v) Trypsin-0.038% (w/v) EDTA solution was gently added to the petri dish for cell digestion, and after gently mixing several times, the solution covered the cell surfaces. […]

SW900 lung cancer cells = assay: CELLTITER-GLO luminescent cell viability assay, SW900 96-well drug screening plate; conditions: Homo sapiens, 72 hours
Protocol: as §1, §2

[2] = test system: LOVO (ATCC CCL-229) lung cancer cells; assay: CELLTITER-GLO luminescent cell viability assay, LOVO cells (same method); conditions: Homo sapiens
Protocol: as §2

## CC1=C(CC(=O)O)c2cc(F)ccc2/C1=C\c1ccc([S+](C)[O-])cc1 (stereo not shown) [sulindac]
[1]; CellTiter-Glo
  IC50: 42.7 µM
[1]; FIG. 2 curve fit
  EC50: 38.6 µM
SW900 lung cancer cells
  IC50: 50.3 µM
[2]
  IC50: 100 µM
